Laboratory results as given in patent US9247759B2, “Identification of human T2R receptors that respond to bitter compounds that elicit the bitter taste in compositions, and the use thereof in assays to identify compounds that inhibit (block) bitter taste in compositions and use thereof” (SENOMYX, INC., priority 2007, dated 2016).
Where two headings read alike, the source gives them in different places.

What was measured:
[1] = molecular target: hT2R61 (Homo sapiens (Human), UniProt P59537); experiment: hT2R panel inhibition, transient HEK293 G16g44, agonist Aristolochic Acid 25 nM; assay type: cell-based; conditions: HEK293, compound at 25 μM
Procedure, shortened: (§1)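 Functional inhibition format: single hT2R transient expression in a G16g44-stable line, bitter agonist at EC80, test compound effect expressed as reduction in receptor activity.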

[2] = tested on: hT2R44; experiment: hT2R panel inhibition, transient HEK293 G16g44, agonist Denatonium 0.5 μM; assay type: cell-based, human; conditions: compound at 25 μM
Procedure, shortened: as §1

[3] = molecular target: hT2R71 (Homo sapiens (Human), UniProt P59536); experiment: hT2R panel inhibition, transient HEK293 G16g44, agonist Picric Acid 10 μM; assay type: cell-based; conditions: HEK293, compound at 25 μM
Procedure, shortened: as §1

[4] = molecular target: hT2R64 (Homo sapiens (Human), UniProt P59538); experiment: hT2R panel inhibition, transient HEK293 G16g44, agonist Aristolochic Acid 1 μM; assay type: cell-based; conditions: HEK293, compound at 25 μM
Procedure, shortened: as §1

[5] = molecular target: hT2R13 (Homo sapiens (Human), UniProt Q9NYV9); experiment: hT2R panel inhibition, transient HEK293 G16g44, agonist Oxyphenonium 1 mM; assay type: cell-based; conditions: HEK293, compound at 25 μM
Procedure, shortened: as §1

[6] = tested on: hT2R63; experiment: hT2R panel inhibition, transient HEK293 G16g44, agonist Caffeine 1 mM or Andrographolide 100 μM; assay type: cell-based, human; conditions: compound at 25 μM
Procedure, shortened: as §1

[7] = tested on: hT2R55; experiment: hT2R panel inhibition, transient HEK293 G16g44, agonist Cinchonine 150 μM; assay type: cell-based, human; conditions: compound at 25 μM
Procedure, shortened: as §1

[8] = molecular target: hT2R5 (Homo sapiens (Human), UniProt Q9NYW4); experiment: hT2R panel inhibition, transient HEK293 G16g44, agonist Picoline 10 mM; assay type: cell-based; conditions: HEK293, compound at 25 μM
Procedure, shortened: as §1

[9] = molecular target: hT2R8 (Homo sapiens (Human), UniProt Q9NYW2); experiment: hT2R panel inhibition, transient HEK293 G16g44, agonist Andrographolide 0.5 mM; assay type: cell-based; conditions: HEK293, compound at 25 μM
Protocol: Specifically, in order to evaluate the inhibitory selectivity of the Compound C compound, this compound was tested against 22 human T2Rs which were deorphaned by Senomyx. These receptors and the bitter ligands that activate these human T2Rs are reported in earlier patent applications which are incorporated by reference herein. These 22 human T2Rs are hT2R1, 3, 4, 5, 7, 8, 9, 10, 13, 14, 16, 44, 51, 54, 55, 61, 63, 64, 65, 67, 71 and 75. The amino acid and nucleic acid sequences of all of these T2Rs may be found in these earlier patent applications. These human T2Rs were each individually transiently transfected into HEK293 cells that stably express the promiscuous G protein G16g44 and functional assays were effected using these receptors as disclosed in these same patent applications. […] The ligands were used at EC80 concentration levels. The list of bitter ligands utilized and the tested ligand concentrations are contained in Table 5 of this example.

[10] = molecular target: hT2R16 (Homo sapiens (Human), UniProt Q9NYV7); experiment: hT2R panel inhibition, transient HEK293 G16g44, agonist Salicin 1 mM; assay type: cell-based; conditions: HEK293, compound at 25 μM
Procedure, shortened: as §1

[11] = molecular target: T1, hT2R14 (Homo sapiens (Human), UniProt Q9NYV8); experiment: hT2R panel inhibition, transient HEK293 G16g44, agonist Aristolochic Acid 2 μM; assay type: cell-based; conditions: HEK293, compound at 25 μM
Procedure, shortened: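 Agonist challenge was at EC80, with 0.5 mM andrographolide on hT2R8 and 2 μM aristolochic acid on hT2R14. Inhibition was measured in functional assays in HEK293 cells that stably carry the promiscuous G protein G16g44 and were transiently transfected with the individual receptor.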

[12] = molecular target: hT2R9 (Homo sapiens (Human), UniProt Q9NYW1); experiment: hT2R panel inhibition, transient HEK293 G16g44, agonist Ofloxacin 1 mM; assay type: cell-based; conditions: HEK293, compound at 25 μM
Procedure, shortened: as §1

[13] = molecular target: hT2R51 (Homo sapiens (Human), UniProt P59533); experiment: hT2R panel inhibition, transient HEK293 G16g44, agonist Prop 2.5 μM; assay type: cell-based; conditions: HEK293, compound at 25 μM
Procedure, shortened: as §1

[14] = tested on: hT2R54; experiment: hT2R panel inhibition, transient HEK293 G16g44, agonist Ranitidine 5 mM; assay type: cell-based, human; conditions: compound at 25 μM
Procedure, shortened: as §1

[15] = molecular target: hT2R4 (Homo sapiens (Human), UniProt Q9NYW5); experiment: hT2R panel inhibition, transient HEK293 G16g44, agonist Chloroquine pH6.5 5 mM; assay type: cell-based; conditions: HEK293, compound at 25 μM
Procedure, shortened: as §1

[16] = molecular target: hT2R3 (Homo sapiens (Human), UniProt Q9NYW6); experiment: hT2R panel inhibition, transient HEK293 G16g44, agonist Chloroquine pH6.5 50 μM; assay type: cell-based; conditions: HEK293, compound at 25 μM
Procedure, shortened: as §1

[17] = tested on: hT2R65; experiment: hT2R panel inhibition, transient HEK293 G16g44, agonist Oleuropein 1 mM; assay type: cell-based, human; conditions: compound at 25 μM
Procedure, shortened: as §1

[18] = molecular target: hT2R10 (Homo sapiens (Human), UniProt Q9NYW0); experiment: hT2R panel inhibition, transient HEK293 G16g44, agonist Strychnine 50 μM; assay type: cell-based
[19] = molecular target: hT2R7 (Homo sapiens (Human), UniProt Q9NYW3); experiment: hT2R panel inhibition, transient HEK293 G16g44, agonist Chloroquine pH6.5 10 mM; assay type: cell-based; conditions: HEK293, compound at 25 μM
Procedure, shortened: as §1

[20] = tested on: hT2R67; experiment: hT2R panel inhibition, transient HEK293 G16g44, agonist Andrographolide 5 μM; assay type: cell-based, human; conditions: compound at 25 μM
Procedure, shortened: as §1

[21] = molecular target: hT2R75 (Homo sapiens (Human), UniProt P59540); experiment: hT2R panel inhibition, transient HEK293 G16g44, agonist Strychnine 1 μM; assay type: cell-based; conditions: HEK293, read-out: screening result against bitter receptor 75, compound at 25 μM; receptor activated to EC80 with the corresponding agonist
[22] = molecular target: T1, hT2R14; experiment: hT2R14 antagonist high-throughput FLIPR assay, stable cell line with G16g44, agonist aristolochic acid; assay type: cell-based; conditions: read-out: IC50 on hT2R14 bitter receptor
Procedure, shortened: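 Compounds were co-applied with 3 μM aristolochic acid, a dose set to reach 70-80% of maximal hT2R14 activation. Read-out was FLIPR fluorescence in a stable HEK293 line co-expressing hT2R14 and G16g44.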

[23] = receptor activated to EC80 with agonist
[24] = receptor activated to EC80 with the corresponding agonist, read-out: screening result against bitter receptor 61
[25] = receptor activated to EC80 with the corresponding agonist
[26] = receptor activated to EC80 with the corresponding agonist, read-out: screening result against bitter receptor 13
[27] = receptor activated to EC80 with the corresponding agonist, read-out: screening result against bitter receptor 5
[28] = receptor activated to EC80 with the corresponding agonist, read-out: screening result against bitter receptor 8
[29] = receptor activated to EC80 with the corresponding agonist, read-out: screening result against bitter receptor 16
[30] = receptor activated to EC80 with the corresponding agonist, read-out: screening result against bitter receptor 14
[31] = receptor activated to EC80 with the corresponding agonist, read-out: screening result against bitter receptor 9
[32] = receptor activated to EC80 with the corresponding agonist, read-out: screening result against bitter receptor 51
[33] = receptor activated to EC80 with the corresponding agonist, read-out: screening result against bitter receptor 7

hT2R5, sequence (Q9NYW4 whole entry): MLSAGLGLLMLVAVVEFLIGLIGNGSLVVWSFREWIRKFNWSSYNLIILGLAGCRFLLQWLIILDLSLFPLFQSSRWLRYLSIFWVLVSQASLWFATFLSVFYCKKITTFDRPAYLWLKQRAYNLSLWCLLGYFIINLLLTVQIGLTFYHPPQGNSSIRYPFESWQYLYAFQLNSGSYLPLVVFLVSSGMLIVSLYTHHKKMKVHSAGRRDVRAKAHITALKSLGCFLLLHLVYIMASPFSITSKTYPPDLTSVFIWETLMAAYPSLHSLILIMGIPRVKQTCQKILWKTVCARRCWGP
hT2R9, sequence (Q9NYW1 whole entry): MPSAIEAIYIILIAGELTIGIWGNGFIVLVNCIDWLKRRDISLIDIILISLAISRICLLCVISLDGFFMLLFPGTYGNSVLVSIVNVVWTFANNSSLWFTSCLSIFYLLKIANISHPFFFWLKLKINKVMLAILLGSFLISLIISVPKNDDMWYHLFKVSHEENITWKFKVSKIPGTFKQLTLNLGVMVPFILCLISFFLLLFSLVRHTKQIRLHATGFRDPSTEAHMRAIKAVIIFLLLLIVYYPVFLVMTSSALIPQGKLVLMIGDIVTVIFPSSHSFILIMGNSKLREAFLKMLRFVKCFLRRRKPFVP
hT2R8, sequence (Q9NYW2 whole entry): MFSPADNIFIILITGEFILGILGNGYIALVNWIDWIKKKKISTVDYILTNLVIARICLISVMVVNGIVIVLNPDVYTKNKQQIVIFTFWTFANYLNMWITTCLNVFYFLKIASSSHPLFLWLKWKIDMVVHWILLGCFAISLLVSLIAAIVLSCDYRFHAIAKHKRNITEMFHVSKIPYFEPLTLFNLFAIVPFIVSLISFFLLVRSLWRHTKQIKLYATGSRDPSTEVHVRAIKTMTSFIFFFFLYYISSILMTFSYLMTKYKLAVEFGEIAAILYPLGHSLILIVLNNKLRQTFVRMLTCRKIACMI
hT2R7, sequence (Q9NYW3 whole entry): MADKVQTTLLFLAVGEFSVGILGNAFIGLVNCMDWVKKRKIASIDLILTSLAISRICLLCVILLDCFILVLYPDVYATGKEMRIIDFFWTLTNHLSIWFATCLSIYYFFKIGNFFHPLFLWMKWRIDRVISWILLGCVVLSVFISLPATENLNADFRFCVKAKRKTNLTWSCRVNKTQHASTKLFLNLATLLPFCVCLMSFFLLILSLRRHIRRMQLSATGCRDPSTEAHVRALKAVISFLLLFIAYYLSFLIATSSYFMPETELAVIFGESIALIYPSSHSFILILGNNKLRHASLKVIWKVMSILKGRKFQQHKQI
hT2R61, sequence (P59537 whole entry): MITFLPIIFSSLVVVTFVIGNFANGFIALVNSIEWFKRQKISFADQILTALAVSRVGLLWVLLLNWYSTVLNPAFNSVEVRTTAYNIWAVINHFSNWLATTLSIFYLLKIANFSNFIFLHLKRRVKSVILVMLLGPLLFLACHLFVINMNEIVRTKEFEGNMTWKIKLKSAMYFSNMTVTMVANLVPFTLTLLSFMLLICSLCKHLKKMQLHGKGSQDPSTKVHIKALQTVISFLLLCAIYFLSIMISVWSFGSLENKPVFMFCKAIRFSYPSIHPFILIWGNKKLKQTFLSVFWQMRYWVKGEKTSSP
hT2R51, sequence (P59533 whole entry): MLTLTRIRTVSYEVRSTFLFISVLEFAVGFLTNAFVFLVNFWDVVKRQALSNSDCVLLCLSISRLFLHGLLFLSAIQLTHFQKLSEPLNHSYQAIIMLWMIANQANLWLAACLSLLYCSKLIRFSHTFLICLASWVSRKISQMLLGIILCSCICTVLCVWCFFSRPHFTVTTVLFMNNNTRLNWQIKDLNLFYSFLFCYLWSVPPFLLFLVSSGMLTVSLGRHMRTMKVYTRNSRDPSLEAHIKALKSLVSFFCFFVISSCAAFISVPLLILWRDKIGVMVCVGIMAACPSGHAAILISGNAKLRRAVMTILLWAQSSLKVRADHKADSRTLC
hT2R16, sequence (Q9NYV7 whole entry): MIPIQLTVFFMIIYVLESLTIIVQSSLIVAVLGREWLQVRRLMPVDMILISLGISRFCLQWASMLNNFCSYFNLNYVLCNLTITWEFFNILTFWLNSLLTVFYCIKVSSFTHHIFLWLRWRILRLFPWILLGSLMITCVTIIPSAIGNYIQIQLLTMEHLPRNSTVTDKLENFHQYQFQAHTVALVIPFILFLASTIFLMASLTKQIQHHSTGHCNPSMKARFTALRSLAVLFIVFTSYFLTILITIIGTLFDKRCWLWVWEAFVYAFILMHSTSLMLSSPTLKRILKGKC
hT2R13, sequence (Q9NYV9 whole entry): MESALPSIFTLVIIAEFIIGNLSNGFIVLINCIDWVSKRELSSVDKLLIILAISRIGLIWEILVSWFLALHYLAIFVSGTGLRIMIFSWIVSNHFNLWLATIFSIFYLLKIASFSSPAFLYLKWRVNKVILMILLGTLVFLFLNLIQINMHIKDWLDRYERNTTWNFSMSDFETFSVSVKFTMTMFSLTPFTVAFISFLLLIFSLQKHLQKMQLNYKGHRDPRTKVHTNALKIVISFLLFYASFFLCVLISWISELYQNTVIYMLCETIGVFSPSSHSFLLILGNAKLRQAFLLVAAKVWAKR
T1 sequence (Q9NYV8 whole entry): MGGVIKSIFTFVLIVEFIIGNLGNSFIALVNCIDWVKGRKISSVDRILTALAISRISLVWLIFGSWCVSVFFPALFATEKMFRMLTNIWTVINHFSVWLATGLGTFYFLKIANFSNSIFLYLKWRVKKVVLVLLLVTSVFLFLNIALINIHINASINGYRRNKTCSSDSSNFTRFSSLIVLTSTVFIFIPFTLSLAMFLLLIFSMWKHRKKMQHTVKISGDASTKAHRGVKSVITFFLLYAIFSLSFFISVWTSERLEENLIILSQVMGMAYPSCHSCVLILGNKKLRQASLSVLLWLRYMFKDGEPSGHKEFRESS
hT2R71, sequence (P59536 whole entry): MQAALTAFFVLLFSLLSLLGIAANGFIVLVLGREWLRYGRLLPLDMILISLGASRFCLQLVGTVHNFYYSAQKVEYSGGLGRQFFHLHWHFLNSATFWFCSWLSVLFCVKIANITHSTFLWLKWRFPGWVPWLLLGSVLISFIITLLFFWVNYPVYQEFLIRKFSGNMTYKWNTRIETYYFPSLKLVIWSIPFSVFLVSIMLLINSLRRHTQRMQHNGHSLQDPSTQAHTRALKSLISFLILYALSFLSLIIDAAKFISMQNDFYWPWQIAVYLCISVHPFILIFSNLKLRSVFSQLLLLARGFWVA
hT2R4, sequence (Q9NYW5 whole entry): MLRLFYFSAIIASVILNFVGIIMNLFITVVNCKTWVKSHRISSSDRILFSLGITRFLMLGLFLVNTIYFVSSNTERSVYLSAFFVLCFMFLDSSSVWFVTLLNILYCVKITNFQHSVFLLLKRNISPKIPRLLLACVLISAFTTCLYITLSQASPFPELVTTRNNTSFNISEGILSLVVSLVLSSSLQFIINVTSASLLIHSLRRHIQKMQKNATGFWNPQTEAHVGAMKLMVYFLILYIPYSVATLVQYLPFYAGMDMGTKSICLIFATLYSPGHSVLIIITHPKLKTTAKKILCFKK
hT2R10, sequence (Q9NYW0 whole entry): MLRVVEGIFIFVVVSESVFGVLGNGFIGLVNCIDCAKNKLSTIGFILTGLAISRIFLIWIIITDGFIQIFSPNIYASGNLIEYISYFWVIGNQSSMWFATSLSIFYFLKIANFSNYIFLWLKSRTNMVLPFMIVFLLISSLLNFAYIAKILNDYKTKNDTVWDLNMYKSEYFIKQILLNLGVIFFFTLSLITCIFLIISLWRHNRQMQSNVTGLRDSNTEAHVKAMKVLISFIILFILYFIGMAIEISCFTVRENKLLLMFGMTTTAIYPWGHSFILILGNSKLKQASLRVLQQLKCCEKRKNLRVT
hT2R64, sequence (P59538 whole entry): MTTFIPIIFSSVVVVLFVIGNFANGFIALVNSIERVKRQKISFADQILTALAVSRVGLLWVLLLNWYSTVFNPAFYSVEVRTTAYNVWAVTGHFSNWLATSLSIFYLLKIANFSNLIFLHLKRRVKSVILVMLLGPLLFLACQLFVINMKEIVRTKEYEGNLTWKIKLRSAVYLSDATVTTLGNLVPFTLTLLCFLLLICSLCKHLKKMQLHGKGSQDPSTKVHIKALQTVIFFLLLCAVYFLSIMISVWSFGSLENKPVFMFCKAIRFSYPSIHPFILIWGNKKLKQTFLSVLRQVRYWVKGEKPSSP
hT2R3, sequence (Q9NYW6 whole entry): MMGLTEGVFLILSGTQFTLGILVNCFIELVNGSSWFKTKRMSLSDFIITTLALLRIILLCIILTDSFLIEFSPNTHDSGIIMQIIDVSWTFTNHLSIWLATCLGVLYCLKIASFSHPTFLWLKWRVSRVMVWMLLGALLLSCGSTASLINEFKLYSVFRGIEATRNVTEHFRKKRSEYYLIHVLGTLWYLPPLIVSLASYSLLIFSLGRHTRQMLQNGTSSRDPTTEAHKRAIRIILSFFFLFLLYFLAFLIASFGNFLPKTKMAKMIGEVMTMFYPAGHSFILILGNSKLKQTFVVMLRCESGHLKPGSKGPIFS
hT2R75, sequence (P59540 whole entry): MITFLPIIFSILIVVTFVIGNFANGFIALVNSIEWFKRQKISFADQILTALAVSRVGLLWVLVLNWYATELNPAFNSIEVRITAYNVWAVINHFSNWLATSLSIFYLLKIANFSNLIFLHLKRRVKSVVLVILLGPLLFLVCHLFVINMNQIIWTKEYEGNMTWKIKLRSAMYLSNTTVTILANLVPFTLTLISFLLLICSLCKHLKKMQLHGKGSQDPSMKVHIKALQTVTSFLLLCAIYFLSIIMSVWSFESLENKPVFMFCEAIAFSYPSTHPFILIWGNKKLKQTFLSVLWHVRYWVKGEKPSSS

CC(C)Oc1ccc(CN(Cc2ccccc2)S(=O)(=O)c2ccc(C(=O)O)cc2)cc1 [Example 5-110, 4-(N-benzyl-N-(4-isopropoxybenzyl)sulfamoyl)benzoic acid]
inhibition at 25 µM ([1]; receptor activated to EC80 with agonist, read-out: inhibition of bitter receptor 61): > 80%
inhibition of bitter receptor 44 [2, 23]: +++ (60% to 80% inhibition = +++)
inhibition at 25 µM ([3]; receptor activated to EC80 with agonist, read-out: inhibition of bitter receptor 71): 60 to 80%
inhibition at 25 µM ([4]; receptor activated to EC80 with agonist, read-out: inhibition of bitter receptor 64): 60 to 80%
inhibition at 25 µM ([5]; receptor activated to EC80 with agonist, read-out: inhibition of bitter receptor 13): 20 to 40%
inhibition of bitter receptor 63 [6, 23]: +++ (60% to 80% inhibition = +++)
inhibition of bitter receptor 55 [7, 23]: ++++ (80% or greater inhibition = ++++)
inhibition at 25 µM ([8]; receptor activated to EC80 with agonist, read-out: inhibition of bitter receptor 5): 20 to 40%
inhibition at 25 µM ([9]; receptor activated to EC80 with agonist, read-out: inhibition of bitter receptor 8): 20 to 40%
inhibition at 25 µM ([10]; receptor activated to EC80 with agonist, read-out: inhibition of bitter receptor 16): 20 to 40%
inhibition at 25 µM ([11]; receptor activated to EC80 with agonist, read-out: inhibition of bitter receptor 14): > 80%
inhibition at 25 µM ([12]; receptor activated to EC80 with agonist, read-out: inhibition of bitter receptor 9): 20 to 40%
inhibition at 25 µM ([13]; receptor activated to EC80 with agonist, read-out: inhibition of bitter receptor 51): 40 to 60%
inhibition of bitter receptor 54 [14, 23]: + (20% to 40% inhibition = +)
inhibition at 25 µM ([15]; receptor activated to EC80 with agonist, read-out: inhibition of bitter receptor 4): 60 to 80%
inhibition at 25 µM ([16]; receptor activated to EC80 with agonist, read-out: inhibition of bitter receptor 3): 40 to 60%
inhibition of bitter receptor 65 [17, 23]: +++ (60% to 80% inhibition = +++)
inhibition at 25 µM ([18]; HEK293, read-out: inhibition of bitter receptor 10, compound at 25 μM, receptor activated to EC80 with agonist): 40 to 60%
inhibition at 25 µM ([19]; receptor activated to EC80 with agonist, read-out: inhibition of bitter receptor 7): 40 to 60%
inhibition of bitter receptor 67 [20, 23]: + (20% to 40% inhibition = +)

COc1ccc(CN(Cc2cccc(Cl)c2)S(=O)(=O)c2ccc(C(=O)O)cc2)cc1 [Example 5-14, 4-(N-(3-chlorobenzyl)-N-(4-methoxybenzyl)sulfamoyl)benzoic acid]
inhibition at 25 µM [1, 24]: > 80%
screening result against bitter receptor 44 [2, 25]: +++ (60% to 80% inhibition = +++)
inhibition at 25 µM ([3]; receptor activated to EC80 with the corresponding agonist, read-out: screening result against bitter receptor 71): > 80%
inhibition at 25 µM [21]: 40 to 60%
inhibition at 25 µM ([4]; receptor activated to EC80 with the corresponding agonist, read-out: screening result against bitter receptor 64): > 80%
inhibition at 25 µM [5, 26]: 20 to 40%
screening result against bitter receptor 63 [6, 25]: ++++ (80% or greater inhibition = ++++)
screening result against bitter receptor 55 [7, 25]: ++++ (80% or greater inhibition = ++++)
inhibition at 25 µM [8, 27]: 60 to 80%
inhibition at 25 µM [9, 28]: 20 to 40%
inhibition at 25 µM [10, 29]: 60 to 80%
inhibition at 25 µM [11, 30]: > 80%
inhibition at 25 µM [12, 31]: 40 to 60%
inhibition at 25 µM [13, 32]: 60 to 80%
screening result against bitter receptor 54 [14, 25]: ++++ (80% or greater inhibition = ++++)
inhibition at 25 µM ([16]; receptor activated to EC80 with the corresponding agonist, read-out: screening result against bitter receptor 3): > 80%
screening result against bitter receptor 65 [17, 25]: ++++ (80% or greater inhibition = ++++)
inhibition at 25 µM ([18]; HEK293, read-out: screening result against bitter receptor 10, compound at 25 μM, receptor activated to EC80 with the corresponding agonist): > 80%
inhibition at 25 µM [19, 33]: 60 to 80%
screening result against bitter receptor 67 [20, 25]: ++ (40% to 60% inhibition = ++)
IC50 [22]: 1.88 µM

COc1ccc(CN(Cc2ccccc2)S(=O)(=O)c2ccc(C(=O)O)cc2)cc1 [Example 5-1, 4-(N-benzyl-N-(4-methoxybenzyl)sulfamoyl)benzoic acid]
inhibition at 25 µM [1, 24]: > 80%
inhibition at 25 µM [21]: 20 to 40%
inhibition at 25 µM [5, 26]: 20 to 40%
inhibition at 25 µM [8, 27]: 20 to 40%
inhibition at 25 µM [9, 28]: 20 to 40%
inhibition at 25 µM [10, 29]: 40 to 60%
inhibition at 25 µM [11, 30]: > 80%
inhibition at 25 µM [12, 31]: 20 to 40%
inhibition at 25 µM [13, 32]: 60 to 80%
inhibition at 25 µM ([15]; receptor activated to EC80 with the corresponding agonist, class symbols, read-out: screening result against bitter receptor 4): 20 to 40%
inhibition at 25 µM [19, 33]: 40 to 60%
melting point: 161 to 163 °C
IC50 [22]: 0.22 µM
